From patent US20120027720A1, “PEPTIDE CONJUGATES” (priority 2008, published 2012)
Where a SMILES comes first, the peptide text is derived from it. Where no end group is shown, it is not given here. [ ]: non-standard residue; d: D form. AllylGly = C=CC[C@H](N)C(=O)O

Experiments:
CaCo2 monolayers [1] = experiment: Epithelial flux of Lucifer Yellow through cell monolayer; assay type: cell-based; parameters: key to Enhanced LY permeability: + indicates an enhancement of the permeability of the tight junctions were observed; − indicates no enhancement of permeability was observed; details: for Enhanced LY permeability: Lucifer Yellow flux, Caco-2 monolayer
In short: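 Caco-2 cells (passage 40-60) grown 21-28 days on Transwell filters, equilibrated 30 min at 37 °C in HBSS-HEPES pH 7.4; Lucifer Yellow with test compound applied apically, n=3 filters. Basolateral samples at 60, 120, 180 min read by fluorescence at 485/535 nm against standard curve; TEER also measured.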

CaCo2 monolayers [2] = experiment: Trans Epithelial Electric Resistance (TEER) across cell monolayer; assay type: cell-based; parameters: key to Reduced TEER: + indicates an enhancement of the permeability of the tight junctions were observed; − indicates no enhancement of permeability was observed; details: for Reduced TEER: Caco-2 monolayer
In short: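 Caco-2 cells, passage 40-60, grown 21-28 days on Transwell filters, equilibrated 30 min at 37° C in MHBSS pH 7.4. Test compound with Lucifer Yellow applied apically (n=3), incubated at 37° C with 50 RPM shaking; TEER measured at baseline and at 30, 60, 120 and 180 min.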

| Molecule | Enhanced LY permeability (CaCo2 monolayers [1]) | Reduced TEER (CaCo2 monolayers [2]) | enhancement of Lucifer Yellow permeability through CaCo2 monolayers (CaCo2 monolayers [1]; compared to vehicle alone) | decrease in TEER across CaCo2 monolayers (CaCo2 monolayers [2]; compared to vehicle alone) |
| --- | --- | --- | --- | --- |
| 192 (V[AllylGly]IGRL-NH2; N-terminus assumed; SMILES C=CC[C@H](NC(=O)[C@@H](N)C(C)C)C(=O)N[C@H](C(=O)NCC(=O)N[C@@H](CCCNC(=N)N)C(=O)N[C@@H](CC(C)C)C(N)=O)[C@@H](C)CC) [compound 192] | − | − |  |  |
| 193 (Y[AllylGly]IGRL-NH2; N-terminus assumed; SMILES C=CC[C@H](NC(=O)[C@@H](N)Cc1ccc(O)cc1)C(=O)N[C@H](C(=O)NCC(=O)N[C@@H](CCCNC(=N)N)C(=O)N[C@@H](CC(C)C)C(N)=O)[C@@H](C)CC) [compound 193] | − | − |  |  |
| 194 (G[AllylGly]IGRL-NH2; N-terminus assumed; SMILES C=CC[C@H](NC(=O)CN)C(=O)N[C@H](C(=O)NCC(=O)N[C@@H](CCCNC(=N)N)C(=O)N[C@@H](CC(C)C)C(N)=O)[C@@H](C)CC) [compound 194] | − | − |  |  |
| 195 (D[AllylGly]IGRL-NH2; N-terminus assumed; SMILES C=CC[C@H](NC(=O)[C@@H](N)CC(=O)O)C(=O)N[C@H](C(=O)NCC(=O)N[C@@H](CCCNC(=N)N)C(=O)N[C@@H](CC(C)C)C(N)=O)[C@@H](C)CC) [compound 195] | − | − |  |  |
| 196 (W[AllylGly]IGRL-NH2; N-terminus assumed; SMILES C=CC[C@H](NC(=O)[C@@H](N)Cc1c[nH]c2ccccc12)C(=O)N[C@H](C(=O)NCC(=O)N[C@@H](CCCNC(=N)N)C(=O)N[C@@H](CC(C)C)C(N)=O)[C@@H](C)CC) [compound 196] | + | − |  |  |
| 197 (K[AllylGly]IGRL-NH2; N-terminus assumed; SMILES C=CC[C@H](NC(=O)[C@@H](N)CCCCN)C(=O)N[C@H](C(=O)NCC(=O)N[C@@H](CCCNC(=N)N)C(=O)N[C@@H](CC(C)C)C(N)=O)[C@@H](C)CC) [compound 197] | − | − |  |  |
| 198 (A[AllylGly]IGRL-NH2; N-terminus assumed; SMILES C=CC[C@H](NC(=O)[C@H](C)N)C(=O)N[C@H](C(=O)NCC(=O)N[C@@H](CCCNC(=N)N)C(=O)N[C@@H](CC(C)C)C(N)=O)[C@@H](C)CC) [compound 198] | − | − |  |  |
| 199 (H[AllylGly]IGRL-NH2; N-terminus assumed; SMILES C=CC[C@H](NC(=O)[C@@H](N)Cc1c[nH]cn1)C(=O)N[C@H](C(=O)NCC(=O)N[C@@H](CCCNC(=N)N)C(=O)N[C@@H](CC(C)C)C(N)=O)[C@@H](C)CC) [compound 199] | − | − |  |  |
| 200 (P[AllylGly]IGRL-NH2; N-terminus assumed; SMILES C=CC[C@H](NC(=O)[C@@H]1CCCN1)C(=O)N[C@H](C(=O)NCC(=O)N[C@@H](CCCNC(=N)N)C(=O)N[C@@H](CC(C)C)C(N)=O)[C@@H](C)CC) [compound 200] | − | − |  |  |
| 201 (R[AllylGly]IGRL-NH2; N-terminus assumed; SMILES C=CC[C@H](NC(=O)[C@@H](N)CCCNC(=N)N)C(=O)N[C@H](C(=O)NCC(=O)N[C@@H](CCCNC(=N)N)C(=O)N[C@@H](CC(C)C)C(N)=O)[C@@H](C)CC) [compound 201] | − | − |  |  |
| 202 (I[AllylGly]IGRL-NH2; N-terminus assumed; SMILES C=CC[C@H](NC(=O)[C@@H](N)[C@@H](C)CC)C(=O)N[C@H](C(=O)NCC(=O)N[C@@H](CCCNC(=N)N)C(=O)N[C@@H](CC(C)C)C(N)=O)[C@@H](C)CC) [compound 202] | − | − |  |  |
| 203 (F[AllylGly]PGRL-NH2; N-terminus assumed; SMILES C=CC[C@H](NC(=O)[C@@H](N)Cc1ccccc1)C(=O)N1CCC[C@H]1C(=O)NCC(=O)N[C@@H](CCCNC(=N)N)C(=O)N[C@@H](CC(C)C)C(N)=O) [compound 203] | − | − |  |  |
| 204 (F[AllylGly]FGRL-NH2; N-terminus assumed; SMILES C=CC[C@H](NC(=O)[C@@H](N)Cc1ccccc1)C(=O)N[C@@H](Cc1ccccc1)C(=O)NCC(=O)N[C@@H](CCCNC(=N)N)C(=O)N[C@@H](CC(C)C)C(N)=O) [compound 204] | + | = |  |  |
| 205 (F[AllylGly]TGRL-NH2; N-terminus assumed; SMILES C=CC[C@H](NC(=O)[C@@H](N)Cc1ccccc1)C(=O)N[C@H](C(=O)NCC(=O)N[C@@H](CCCNC(=N)N)C(=O)N[C@@H](CC(C)C)C(N)=O)[C@@H](C)O) [compound 205] | − | − |  |  |
| 206 (F[AllylGly]LGRL-NH2; N-terminus assumed; SMILES C=CC[C@H](NC(=O)[C@@H](N)Cc1ccccc1)C(=O)N[C@@H](CC(C)C)C(=O)NCC(=O)N[C@@H](CCCNC(=N)N)C(=O)N[C@@H](CC(C)C)C(N)=O) [compound 206] | + | + |  |  |
| 207 (F[AllylGly]SGRL-NH2; N-terminus assumed; SMILES C=CC[C@H](NC(=O)[C@@H](N)Cc1ccccc1)C(=O)N[C@@H](CO)C(=O)NCC(=O)N[C@@H](CCCNC(=N)N)C(=O)N[C@@H](CC(C)C)C(N)=O) [compound 207] | + | + |  |  |
| 208 (F[AllylGly]FGRL-NH2; N-terminus assumed; SMILES C=CC[C@H](NC(=O)[C@@H](N)Cc1ccccc1)C(=O)N[C@@H](Cc1ccccc1)C(=O)NCC(=O)N[C@@H](CCCNC(=N)N)C(=O)N[C@@H](CC(C)C)C(N)=O) [compound 208] | + | + |  |  |
| 209 (F[AllylGly]VGRL-NH2; N-terminus assumed; SMILES C=CC[C@H](NC(=O)[C@@H](N)Cc1ccccc1)C(=O)N[C@H](C(=O)NCC(=O)N[C@@H](CCCNC(=N)N)C(=O)N[C@@H](CC(C)C)C(N)=O)C(C)C) [compound 209] | − | − |  |  |
| 210 (F[AllylGly]GGRL-NH2; N-terminus assumed; SMILES C=CC[C@H](NC(=O)[C@@H](N)Cc1ccccc1)C(=O)NCC(=O)NCC(=O)N[C@@H](CCCNC(=N)N)C(=O)N[C@@H](CC(C)C)C(N)=O) [compound 210] | + | + |  |  |
| 211 (F[AllylGly]AGRL-NH2; N-terminus assumed; SMILES C=CC[C@H](NC(=O)[C@@H](N)Cc1ccccc1)C(=O)N[C@@H](C)C(=O)NCC(=O)N[C@@H](CCCNC(=N)N)C(=O)N[C@@H](CC(C)C)C(N)=O) [compound 211] | + | + |  |  |
| 220 (F[AllylGly]ITRL-NH2; N-terminus assumed; SMILES C=CC[C@H](NC(=O)[C@@H](N)Cc1ccccc1)C(=O)N[C@H](C(=O)N[C@H](C(=O)N[C@@H](CCCNC(=N)N)C(=O)N[C@@H](CC(C)C)C(N)=O)[C@@H](C)O)[C@@H](C)CC) [compound 220] | − | − |  |  |
| 223 (F[AllylGly]IARL-NH2; N-terminus assumed; SMILES C=CC[C@H](NC(=O)[C@@H](N)Cc1ccccc1)C(=O)N[C@H](C(=O)N[C@@H](C)C(=O)N[C@@H](CCCNC(=N)N)C(=O)N[C@@H](CC(C)C)C(N)=O)[C@@H](C)CC) [compound 223] | + | + |  |  |
| 224 (F[AllylGly]IPRL-NH2; N-terminus assumed; SMILES C=CC[C@H](NC(=O)[C@@H](N)Cc1ccccc1)C(=O)N[C@H](C(=O)N1CCC[C@H]1C(=O)N[C@@H](CCCNC(=N)N)C(=O)N[C@@H](CC(C)C)C(N)=O)[C@@H](C)CC) [compound 224] | − | − |  |  |
| CC[C@H](C)[C@H](NC(=O)[C@H](CS)NC(=O)[C@@H](N)Cc1ccccc1)C(=O)NCC(=O)N[C@@H](CCCNC(=N)N)C(=O)N[C@@H](CC(C)C)C(=O)O [SEQ ID NO: 1, Phe-Cys-Ile-Gly-Arg-Leu] (H-FCIGRL-OH; N-terminus and C-terminus assumed) |  |  | 51 fold | 16 fold |
